Row | melting point | SMILES
1 | 189 to 191 °C | COc1cccc(Nc2ccc(Nc3ncnc4cc(-c5ccccc5)sc34)cc2)c1
2 | 118 to 120 °C | CC(C#N)c1ccc2oc(-c3ccccc3)nc2c1 (stereo not given)
3 | 99 to 101 °C | COc1cccc(-c2nn(Cc3ccccc3)c3ncnc(Cl)c23)c1
4 | 99 to 99.5 °C | CN(C(=O)NN1CC=CCC1)c1ccccc1
5 | 95 to 98 °C | Cc1oc(-c2ccccc2)nc1CN(C)C(=O)c1ccc(C=C2SC(=O)NC2=O)cc1
6 | 173 to 175 °C | CC(C)(C)OC(=O)N1CCC(CC(=O)Nc2cccc(-c3ccnc4c(C(=O)c5cccs5)cnn34)c2)CC1
7 | 152 to 153 °C | CC(=O)N(c1ccccc1)c1ccc(C(=O)CBr)cc1
8 | 173 to 175 °C | Cc1cccc(-c2nc3cccnn3c2-c2ccnc(N(C(=O)C3CC3)C(=O)C3CC3)c2)c1
9 | 225 to 226 °C | CNC(=O)c1cc2c(Oc3ccc(/C=C/C(=O)NCC(O)CO)cc3)cncc2s1 (stereo not given)
10 | 151 to 152 °C | CCc1cc2c(=O)n3cc(C(=O)OC)ccc3nc2s1
11 | 129 to 130 °C | CCOC(=O)c1cccc(-c2ccc3c(n2)C(Oc2ccc(Cl)cc2Cl)CC3)c1 (stereo not given)
12 | 288 °C | COC(=O)c1ccc(OCC(=O)NN=C2C(=O)Nc3ccc(I)cc32)cc1
13 | 132 to 133 °C | COc1ccc2c(c1)c(CCNC(C)=O)cn2S(=O)(=O)c1ccc(C)cc1
14 | 301 to 303 °C | O=C1c2ccc(Cl)cc2-n2c1nc1ccccc1c2=O
15 | 207 °C | O=C(c1ccc(O)cc1)c1c(-c2ccccc2)oc2ccc([N+](=O)[O-])cc12
16 | 114 to 115 °C | CS(=O)(=O)c1ccc(C2=C(c3ccc(CO)cc3)CCC2)cc1
17 | 193 to 196 °C | CC(C)C(=O)N1CCC(c2nc3cc(-c4ccc(C(N)=O)c(F)c4)ccc3o2)CC1
18 | 105 to 107 °C | Brc1ccc(NN=C(Cc2ccco2)c2ccccc2)nc1
19 | 254 to 256 °C | Cn1cc(-c2ncc(-c3ccc4cc(OCc5nnn[nH]5)ccc4c3)o2)c2ccccc21
20 | 128 to 130 °C | COc1ccc(Oc2c(C)noc2NS(=O)(=O)c2ccccc2)cc1
21 | 245 to 247 °C | COc1cc2ncc(C#N)c(Nc3ccccc3SC)c2cc1OC
22 | 110 °C | CCN(CCNC(=O)c1ccc2ccccc2c1)C1CCc2ncsc2C1 (stereo not given)

Row | melting point | SMILES
23 | 118 to 120 °C | Cc1c(C)c2c(c(C)c1NCc1ccc(F)cc1)C(c1ccc(F)cc1)C(C)(C)O2 (stereo not given)
24 | 265 to 266 °C | Cc1cc(-c2nc3cccnn3c2-c2ccnc(NC(=O)c3ccccc3C)c2)ccc1F
25 | 147 to 149 °C | Oc1ccccc1-c1nc(-c2ccccc2O)nc(-c2ccccc2O)n1
26 | 237 to 240 °C | COc1ccc2nc(NC(=O)C(CC3CCCC3)c3ccc(S(=O)(=O)NCc4ccccc4)cc3)sc2n1 (stereo not given)
27 | 170 to 171 °C | COc1ccccc1-c1noc2ccc([N+](=O)[O-])cc12
28 | 90 to 93 °C | Cc1ccc(NC(=O)c2cccc(C(F)(F)F)c2)cc1-c1ccc2scnc2c1
29 | 75 to 77 °C | CNCc1cccc2c1ccn2S(=O)(=O)c1ccccc1
30 | 85 to 90 °C | CCOC(=O)CC(=O)c1cc(Oc2ccccc2)c(NS(C)(=O)=O)cc1OCc1ccccc1
31 | 139 to 141 °C | CCc1csc(-c2ccc3c(c2)C=C(C(=O)Nc2ccc(CN(C)C4CCOCC4)cc2)CCN3C)c1
32 | 69 to 71 °C | CCCCc1sc(-c2ccccc2)nc1O
33 | 139 to 140 °C | Cc1c(-c2ccncc2)sc(-c2ccncc2)c1C=O
34 | 100 to 110 °C | COCCc1cccc2oc(C(=O)Nc3ccc(-c4ccc(S(=O)(=O)NC(C(=O)O)C(C)C)cc4)cc3)c(C)c12 (stereo not given)
35 | 80 to 82 °C | O=C1C(=O)c2ccccc2C2=C1SCC(CNCCc1ccccc1)O2 (stereo not given)
36 | 166 to 168 °C | Cc1ccc2nc(N3CCNCC3)c(=O)n(-c3ccccc3)c2c1
37 | 32 °C | CCOC(=O)CC(c1ccc(OC)cc1)N1C(=O)c2ccccc2C1=O (stereo not given)
38 | 85 to 86.5 °C | COC(=O)C=CC(=S)c1ccc(-c2ccccc2)cc1
39 | > 300 °C | O=C1C2=C(NC(=O)C3(N2)SCCS3)c2ccccc21
40 | 68 to 72 °C | COc1cc(N)c(Cl)cc1C(=O)NCCC1CN(Cc2ccccc2)CCO1 (stereo not given)
41 | 168 °C | CCN(CC)c1ccc(C=CC(=O)C=Cc2ccc(N(CC)CC)cc2)cc1
42 | 168 °C | CC(C)N(C(C)C)S(=O)(=O)N[C@@H](Cc1ccc(Nc2nccc3cnccc23)cc1)C(=O)O
43 | 231 to 233 °C | O=C(O)c1cccc(NCc2cccnc2)c1C(=O)O
44 | 165 to 168 °C | O=C(O)COc1ccc2c(-c3ccccc3Cl)noc2c1Cl

More lines, now with the values behind:

Row | SMILES | melting point
45 | CNC(=Nc1cccc(CN(C)C)n1)NC#N | 180 to 181 °C
46 | Clc1c2c(nc3ccc(C4CCCCC4)cc13)CCCC2 | 89 to 91 °C
47 | CCc1c(N(C(C)=O)c2cc(C)cc(C)c2)[nH]c(=O)[nH]c1=O | 238 to 239 °C
48 | CN1CCN(C(=O)OC2C3=C(SCCS3)C(=O)N2c2ccc3c(Cl)ccnc3n2)CC1 (stereo not given) | 240 °C
49 | COc1ccc(C=C(C#N)C(=O)O)cc1OC | 206 °C
50 | CN1Cc2c(-c3noc(C4CC4)n3)ncn2-c2cccc(Cl)c2C1=O | 165 to 169 °C
51 | COC(=O)c1c[nH]c(Sc2cc(Cl)c(Cl)cc2Cl)c1 | 165 to 175 °C
52 | Cc1cccc2c1C(=O)C1(CCOC1=O)S2 (stereo not given) | 106 °C
53 | Nc1nc(N)nc(CCC(Cl)(Cl)Cl)n1 | 187 to 188 °C
54 | CCOC(=O)COc1cc(C)c(C)c2c1CCC2=O | 100 to 101 °C
55 | COCCn1cc(C#N)c(N)n1 | 105 to 107 °C
56 | CCC(=O)C1=CCC(c2c(C)c(C)c3c(c2Cl)CC(C)(C)C3)CC1=O (stereo not given) | 74 to 75 °C
57 | COc1cccc(-c2cnc(C#N)c(C#N)n2)c1 | 139 to 140 °C
58 | COc1ccc(CC2CCC3NC(=O)C(CO)CC3C2)cc1 (stereo not given) | 193 to 200 °C
59 | CCOC(=O)c1nc(O)sc1-c1ccncc1 | 204 to 206 °C
60 | CC1(C)C2CC1C(=O)CC2=O | 80 to 81 °C
61 | CCOC(=O)n1nc(S(=O)(=O)Nc2c(Cl)cccc2Cl)nc1NC | 202 to 203 °C
62 | NS(=O)(=O)c1cccnc1OC1CCCC1 | 134 to 135 °C
63 | CCOC(=O)C1=C(/C=C/N(C)C)C(CC)(C(=O)N(CC)CC)OC1=O (stereo not given) | 105 °C
64 | CC(C)C(=O)CCC(C)C1CCC2C3CC(O)C4CC(O)CCC4(C)C3CCC12C (stereo not given) | 180 to 181 °C
65 | CN(C)C=Nc1c(Cl)cc(N=Cc2c(Cl)cccc2Cl)cc1Cl | 84 to 86 °C

Row | SMILES | melting point
66 | O=C(Cc1ccc(Cl)cc1)c1ccc(Cl)cc1Cl | 65 to 66 °C
67 | O=C(O)COCCN1CCN(C(c2ccccc2)c2ccccc2)CC1 | 100 °C
68 | N#CC(N)=C(C#N)N=Cc1cnn(-c2c(F)cc(F)cc2F)n1 | 213 to 215 °C
69 | COC(=O)C(Cl)=Cc1cc(-n2ncc(C(F)(F)F)c(C)c2=O)ccc1Cl | 80 to 81 °C
70 | CCOC(=O)c1cc(C(C)C)n(C)n1 | 70.5 to 71 °C
71 | COC(=O)c1cc2cc(O)ccc2o1 | 132 to 133 °C
72 | CCCc1c(OCCCCSCCC(=O)O)ccc(C(C)=O)c1O | 75 to 77 °C
73 | CC1(C(=O)O)CC1(Br)Br (stereo not given) | 108 to 109 °C
74 | O=C(Nc1ccc([N+](=O)[O-])cc1)C(=O)N1CCC(Cc2ccc(F)cc2)CC1 | 157 to 159 °C
75 | COc1cccc2ccc(CC#N)cc12 | 47 to 48 °C
76 | Nc1cccc2c1CCCCC2 | 107 to 111 °C
77 | O=S1(=O)c2cccc3cccc(c23)N1CCCN1CC=C(c2ccc(O)cc2)CC1 | 198 °C
78 | Cc1nc2cnc3ccccc3c2n1CC(C)O (stereo not given) | 176 to 177 °C
79 | Cc1cc([N+](=O)[O-])ccc1NCCCn1ccnc1 | 163 °C
80 | CC(C)(O)c1nnc2ccc(-c3c(-c4ccc(F)cc4F)nc4occn34)nn12 | 258 to 260 °C
81 | CCCNC(=O)c1ccc(Nc2nc(OCC3CCCCC3)c3nc[nH]c3n2)cc1 | 226 to 228 °C
82 | COc1ccc2c(c1)c(=O)c(CSC)cn2C | 122 to 123 °C
83 | CCOC(=O)C(=CNc1ccccc1CO)C(=O)C(C)C | 72 to 84 °C
84 | CC(=O)OC1CSC(Oc2c(C)ccnc2-c2cccnc2)C(OC(C)=O)C1OC(C)=O (stereo not given) | 143 °C
85 | N#CSc1ccc(N)c([N+](=O)[O-])c1 | 110 to 112 °C
86 | Fc1ccc(Cl)c2oc(CCC#Cc3ccccn3)nc12 | 102 to 103 °C

Row | SMILES | melting point
87 | CC(=O)N1CCc2oc3ncccc3c(=O)c2C1 | 182 to 184 °C
88 | Nc1nc(Cl)c(N)c(NCCO)n1 | 164 to 167 °C
89 | CC1(C)CCCNc2ccc([N+](=O)[O-])cc21 | 99 °C
90 | OCC1OC(n2cnc3c(NCCc4c[nH]c5ccccc45)ncnc32)C(O)C1O (stereo not given) | 187 °C
91 | COC(=O)COc1ccc(C(=O)C(C)C)cc1 | 45 to 46 °C
92 | CCc1nc2cnc3cc(C=CC(=O)N(C)C)ccc3c2n1CC(C)(C)O | 196 to 198 °C
93 | CC(=O)OC1CSC(Oc2ccnc(-c3cccnc3)c2)C(OC(C)=O)C1OC(C)=O (stereo not given) | 185 °C
94 | COc1cc2c(c3c1OC(C)(C)C3)C(C)=NC(C)(C)C2 | 112 to 113 °C
95 | CCN1CC(NC(=O)c2ccc(N)cc2)CN1CC | 119 to 121 °C
96 | COC(=O)c1nc(CCN(C)C)n2c1CN=C(c1ccccc1Cl)c1cc(Cl)ccc1-2 | 203 to 204 °C
97 | Cc1cc(C23CC4CC(CC(C4)C2)C3)ccc1NC(=O)c1cc([N+](=O)[O-])ccc1Br | 229 °C
98 | CCOC(=O)c1ncn2c1[C@@H]1CCCN1C(=O)c1cc(F)ccc1-2 | 194 to 195 °C
99 | CCOC(=O)c1ccc2c(c1)C(=O)N(C1CC(C)(C)N(C(C)=O)C(C)(C)C1)C2=O | 119 to 121 °C
100 | CC(C)C(=O)Nc1cn(-c2cncc(F)c2)nc1CCl | 172 to 177 °C
101 | CC(CCO)C(c1cc(F)ccc1F)S(=O)(=O)c1ccc(Cl)cc1 (stereo not given) | 65 to 67 °C
102 | COC(=O)CC1c2ccc(Cl)cc2NC(=O)C1[N+](=O)[O-] (stereo not given) | 135 °C
103 | N#Cc1sc(N)c(C#N)c1Cl | 259 °C
104 | CC(O)Cc1ccc2oc(=O)[nH]c2c1 (stereo not given) | 133 to 134 °C
105 | CCOc1cccc(C(O)c2ncccc2OC)c1 (stereo not given) | 104 to 106 °C
